# No end group written: not given here. *: point of attachment. Biotin = O=C1N[C@H]2[C@H](CS[C@H]2CCCCC(=O)*)N1
# T1: CP2c (Mus musculus, UniProt Q9ERA0)
# T1 construct: 5 μg of the nuclear extract and an [α-32p] dCTP-labeled DNA probe; endogenous in cells; host or cells: MEL (murine erythroid leukemia) cells, HMBA-differentiated, nuclear extract
# T1 sequence (Q9ERA0 1-502): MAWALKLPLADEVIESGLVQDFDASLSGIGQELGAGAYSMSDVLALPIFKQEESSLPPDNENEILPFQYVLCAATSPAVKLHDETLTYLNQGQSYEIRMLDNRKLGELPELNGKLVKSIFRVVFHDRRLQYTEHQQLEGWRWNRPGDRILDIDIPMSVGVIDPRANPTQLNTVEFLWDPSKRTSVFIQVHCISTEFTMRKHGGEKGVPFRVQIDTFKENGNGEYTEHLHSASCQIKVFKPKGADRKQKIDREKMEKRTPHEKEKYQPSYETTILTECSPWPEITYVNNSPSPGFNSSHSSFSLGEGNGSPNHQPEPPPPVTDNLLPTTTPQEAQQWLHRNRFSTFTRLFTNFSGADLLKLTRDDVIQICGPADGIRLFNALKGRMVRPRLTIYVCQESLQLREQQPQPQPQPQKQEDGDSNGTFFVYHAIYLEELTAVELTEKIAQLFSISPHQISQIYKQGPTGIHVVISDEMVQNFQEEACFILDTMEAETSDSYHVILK
# T2: GST-CP2c wild type (UniProt Q9ERA0 Q9ERA0:1-502)
# T2 sequence: T1 sequence (Q9ERA0 1-502)
# B1: alpha-globin promoter CP2c site probe (dsDNA)
# DNA 1: GATCCCAAGTTTTACTCGGTAGAGCAAGCACAAACCAGG
# DNA 2: CCTGGTTTGTGCTTGCTCTACCGAGTAAAACTTGGGATC
# How the values were obtained:
# [1] = tested on: human blood cancer cell lines (K562, HEL, HL60); assay: MTT cell viability, human blood cancer cell lines; type: cell-based; settings: 0-10 μM, 24-96 h
# Method: (§1) Liver cancer cell lines (HepG2, Hep3B) were inoculated into 96-well plates at a density of 3000 cells/well, and then 50 μl of culture solution was added thereto. Cells were cultured at 37° C. and 5% CO2 for 1 h. […] Cells were cultured at 37° C. and 5% CO2 for 24, 48, 72, and 96 h. After completion of the culture, the remaining culture solution was removed from the well plates, the cultures were diluted with MTT solution (3-(4,5-dimethylthiazol-2-yl)-2,5-diphenyltetrazole bromide) to a final density of 500 μg/ml, and cells were cultured at 37° C. and 5% CO2 for 3 h. The remaining MTT solution was removed and 150 μl of dimethyl sulfoxide (DMSO) was added. The reaction was carried out at room temperature for 20 min. After completion of the reaction, absorbance was measured using a microplate reader.
# [2] = tested on: BEAS2B and MCF10A normal epithelial cell lines
# Method: as §1
# [3] = tested on: cancer cell lines (HepG2, Hep3B, 293T, MCF-7, MDA-MB-231, K562, HEL, HL60, U251, U373MG, U87MG); assay: Microscopic observation of growth inhibition and apoptosis, cancer cell lines; type: cell-based, human; settings: 2 μM, 48 h
# Method: (§2) Liver cancer cell lines (HepG2, Hep3B), a human embryonic kidney cell line (293T), breast cancer cell lines (MCF-7, MDA-MB-231), blood tumor cell lines (K562, HEL, HL60), glioblastoma cell lines (U251, U373MG, U87MG), a mammary epithelial cell line (MCF10A), a lung epithelial cell line (BEAS2B), human mesenchymal stem cells (hMSCs), and mouse primary T cells (resting and activated T cells) were inoculated into 96-well plates at a density of 3,000 cells/well, supplemented with 50 μl of culture solution, and cultured at 37° C. and 5% CO2 for 1 h. […] After completion of the culture, cells were observed under an inverted phase contrast microscope and their morphological changes were imaged.
# [4] = tested on: liver cancer cell lines (HepG2, Hep3B); assay: MTT cell viability, liver cancer cell lines; type: cell-based, human; settings: 0-10 μM, 24-96 h
# Method: as §1
# [5] = tested on: human embryonic stem cells (hESCs, H9)
# Text: MEF cells labeled with rhodamine were often used to distinguish them from hESC-derived cells.
# [6] = tested on: glioblastoma cell lines (U251, U87MG, U343); assay: MTT cell viability, glioblastoma cell lines; type: cell-based, human; settings: 0-10 μM, 24-96 h
# Method: as §1
# [7] = tested on: CP2c; assay: Luciferase reporter assay of CP2c transcriptional activity in 293T cells; type: cell-based, human; settings: 2 μM, 48 h, wild-type CP2c binding sites, compared with FQI1
# Method: 293T cells were inoculated into a 12-well plate at a density of 1×10^5 cells/well. 12 h after inoculation, cells were transfected with combinations of a reporter vector (the wild-type reporter links the enhancer sequence of the GATA-1 gene including twice repeated CP2c-binding sites to the upstream of the luciferase gene and Mut 1/3, Mut 2/4, and Mut 1-4 reporters cause mutations of the CP2c binding sites present in the enhancer sequence) and various Flag-CP2c, HA-CP2b, and HA-PIAS1 expression vectors by using the effectene method. After 1-h culture, cells were treated with FQI1, Peptide 5C, and Peptide 5-2C at concentrations of 2 μM, followed by 48-h culture. Cells were harvested and lysed in 250 μl of passive cell lysis buffer (Promega) to obtain an extract. 20 μl of the cell extract and a dual-luciferase assay kit (Promega) were used to measure the activity of the labeled luciferase gene in GLOMAX (Promega) (the expression of each expression vector was confirmed by Western blotting).
# [8] = tested on: human embryonic kidney cancer cell line (293T); assay: MTT cell viability, 293T; type: cell-based; settings: 0-10 μM, 24-96 h
# Method: as §1
# [9] = tested on: normal cell lines (MCF10A, BEAS2B, hMSCs, mouse primary T cells)
# Method: as §2
# [10] = tested on: breast cancer cell lines (MCF7, MDA-MB-231); assay: MTT cell viability, breast cancer cell lines; type: cell-based, human; settings: 0-10 μM, 24-96 h
# Method: as §1
# [11] = target: T1, CP2c; settings: Kim et al., Analytical Biochemistry 2013; cited from earlier work
# [12] = target: T1, CP2c; assay: DNA immunoprecipitation (DIP) assay of CP2c-DNA binding; settings: 0.2, 0.5, and 1 μg peptide; MEL nuclear extract; α-globin promoter probe
# Method: To analyze whether the five peptides identified in Example 1.1 bind to CP2c in cells to affect the ability of CP2c to bind to DNA, DNA immunoprecipitation (DIP) assay was performed as disclosed in another preceding research conducted by the present inventors (Kim et al., A DNA immunoprecipitation assay used in quantitative detection of in vitro DNA-protein complex binding, Analytical Biochemistry. 2013; 441: 147-151).
# In summary, the differentiation of a murine erythroid leukemia (MEL) cell line was induced by treatment with 5 mM hexamethylene bisacetamide (HMBA) and, on day 2 after differentiation, a cellular nuclear extract was separated. […]
# Subsequently, 5 μg of the nuclear extract and an [α-32p] dCTP-labeled DNA probe (a sequence corresponding to the common CP2c binding site present in mouse α-globin promoter and between −156 and −124 in the start codon of the α-globin gene, see the paper of Kim et al. for details of the sequence) were allowed to react with a binding buffer (4% glycerol, 10 mM Tris-HCl, 1 mM DTT, 1 mM EDTA, and 0.1% NP-40) for 15 min, and gradually increasing amounts (0.2, 0.5, and 1 μg) of the identified CP2c binding peptides (Peptide 5, Peptide 8, Peptide 13, Peptide 21, and Peptide 31) were added thereto. […] The CP2c protein was removed from the DNA probe and the remaining amount of the DNA probe was measured using a scintillation counter. […]
# [13] = tested on: MDA-MB-231 cell line and MCF7 cell line; assay: MTT assay of Peptide 5-2CB; type: cell-based, human
# Text: To support this assumption, a CP2c protein region with which Peptide 5-2C interacts and amino acids in the region directly binding to Peptide 5-2C need to be identified. Thus, an attempt was made to obtain mutant CP2c proteins in which polar amino acids present in the CP2c region binding with Peptide 5 shown in FIG. 1 were substituted with Ala and analyze the binding of the mutant CP2c proteins with Peptide 5-2C by enzyme-linked immunosorbent assay (ELISA). To facilitate this analysis, Peptide 5-2CB was synthesized in which biotin tag is bonded to the C-terminal Pro residue of Peptide 5-2C. To confirm whether Peptide 5-2CB induces cancer cell-specific growth interruption and apoptosis, like Peptide 5-2C, MTT assay was conducted on two different batches of Peptide 5-2CB in MDA-MB-231 cell line and MCF7 cell line by the same method as in Example 5.1. IC50 values were also calculated from the results of MTT assay. To obtain 19 mutant CP2c proteins in which polar amino acids present in the CP2c region binding with Peptide 5-2C were substituted with Ala, oligonucleotides having sequences encoding the corresponding mutant amino acids were synthesized and site-directed mutagenesis was carried out. The base sequences encoding the mutant CP2c genes were cloned into the pGEX4 vector and mutant GST-fusion CP2c proteins were purified using beads bound with antibody against GST-tag. […]
# [14] = target: T2, GST-CP2c wild type; assay: pulldown; DNA-IP, values only in figure; settings: tags: GST fusion, E. coli; label: 32P
molecule,measurement,setting,value
Ac-HERRESNYPQRPCRGCRGDKGPDC-Amide (Ac-HERRESNYPQRPCRGCRGDKGPDC-NH2; ends and bridges not checked) [Peptide 5C],"relative viability (MTT), K562, HEL, HL60, compared with FQI1",[1],slightly effectively inhibited the growth of the glioblastoma cell lines and induced apoptosis compared to FQI1
same,growth inhibition and apoptosis induction of normal control cell lines (IC50 calculation),[2],"inhibited cell growth and induced apoptosis, similarly to the treatment with Peptide 5C"
same,growth inhibition and apoptosis induction of cancer cell lines (microscopy),[3],specifically inhibited the growth of the cancer cell lines and induced apoptosis
same,"relative viability (MTT), liver cancer cell lines, compared with FQI1",[4],more effectively inhibited the growth of the liver cancer cell lines and induced apoptosis than FQI1
same,cytotoxicity (MTT) in hESCs,[5],slight cytotoxicity at high concentrations
same,"relative viability (MTT), glioblastoma cell lines, compared with FQI1",[6],more effectively inhibited the growth of the glioblastoma cell lines and induced apoptosis than FQI1
same,CP2c-mediated transcriptional activity (luciferase reporter),[7],effectively inhibit CP2c-mediated transcriptional activity compared to FQI1
same,"relative viability (MTT), 293T, compared with FQI1",[8],inhibited the growth of the glioblastoma cell lines and induced apoptosis similarly to FQI1
same,effect on normal cell lines (microscopy),[9],without substantially affecting the normal cell lines
same,"relative viability (MTT), breast cancer cell lines, compared with FQI1",[10],more effectively inhibited the growth of the breast cancer cell lines and induced apoptosis than FQI1
HERRESNYPQRP [Peptide 5],inhibition of CP2c-DNA binding (DNA immunoprecipitation),[11],inhibits CP2c-DNA binding in a concentration-dependent manner
same,inhibition of CP2c-DNA binding (DIP assay),[12],specifically inhibited the CP2c-DNA binding in a concentration-dependent manner
Peptide 5-2CB: biotin-tagged Lys linked to the C-terminal Cys residue of Peptide 5-2C (NYPQRPCRGDKGPDCK(Biotin); not fully specified; cysteine pairing not given here),IC50 compared with Peptide 5-2C,[13]; 48 h,had IC50 values similar to Peptide 5-2C
same,cancer cell growth interruption and apoptosis (MTT),"[13]; two batches, increasing concentrations",induced cancer cell-specific cell growth interruption and apoptosis
B1,binding result,[14],binds
